By IC50 is commonly meant the concentration needed to halve the response being measured.

The assay deals with T1, purified recombinant human PARP (Homo sapiens, UniProt P09874).
T1 construct: purchased Trevigan (Gaithersburg, Md.)
T1 sequence (P09874 whole entry): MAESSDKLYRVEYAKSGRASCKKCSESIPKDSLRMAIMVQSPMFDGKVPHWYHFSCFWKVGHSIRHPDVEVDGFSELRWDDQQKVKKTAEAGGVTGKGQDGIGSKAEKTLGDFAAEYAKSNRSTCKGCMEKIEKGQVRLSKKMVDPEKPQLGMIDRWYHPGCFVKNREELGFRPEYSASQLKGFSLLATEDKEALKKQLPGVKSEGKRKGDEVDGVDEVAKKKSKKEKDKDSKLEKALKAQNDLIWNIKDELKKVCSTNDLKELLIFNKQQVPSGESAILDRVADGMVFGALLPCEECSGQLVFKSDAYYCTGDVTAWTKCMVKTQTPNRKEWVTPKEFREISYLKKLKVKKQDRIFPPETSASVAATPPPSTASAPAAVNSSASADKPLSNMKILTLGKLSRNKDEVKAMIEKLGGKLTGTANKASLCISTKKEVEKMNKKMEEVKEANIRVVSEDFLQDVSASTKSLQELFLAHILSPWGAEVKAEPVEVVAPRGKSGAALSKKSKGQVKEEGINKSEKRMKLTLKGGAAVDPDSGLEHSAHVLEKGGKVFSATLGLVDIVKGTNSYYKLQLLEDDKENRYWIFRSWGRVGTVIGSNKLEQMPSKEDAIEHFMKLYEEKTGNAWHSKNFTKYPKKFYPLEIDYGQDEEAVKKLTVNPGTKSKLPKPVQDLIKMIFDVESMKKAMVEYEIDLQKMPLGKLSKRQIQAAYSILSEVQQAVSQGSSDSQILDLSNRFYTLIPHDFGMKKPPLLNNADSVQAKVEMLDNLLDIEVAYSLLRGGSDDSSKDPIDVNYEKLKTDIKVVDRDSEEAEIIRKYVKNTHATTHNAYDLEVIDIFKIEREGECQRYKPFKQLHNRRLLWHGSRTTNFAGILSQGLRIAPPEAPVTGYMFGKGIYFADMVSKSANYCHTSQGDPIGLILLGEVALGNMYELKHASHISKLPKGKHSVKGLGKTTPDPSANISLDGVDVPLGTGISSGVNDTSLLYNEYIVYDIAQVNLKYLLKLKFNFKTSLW
Nature of the assay: PARP enzyme assay (IC50), [3H]NAD incorporation. The format is biochemical. To be noted: approximate IC50 values; 25° C., 15 minutes. The method, then: The reaction is initiated by incubating the mixture at 25° C. After 15 minutes of incubation. the reaction is terminated by adding 500 microliters of ice cold 20% (w/v) trichloroacetic acid. The precipitate formed is transferred onto a glass fiber filter (Packard Unifilter-GF/B) and washed three times with ethanol. After the filter is dried, the radioactivity is determined by scintillation counting.
On to `O=C(O)CCC(=O)Nc1ccc2[nH]c(=O)c3ccccc3c2c1` [Compound 27], for which the IC50 was determined as 111 nM.

With `CC(C)N(C(=O)c1ccc2c(c1)[nH]c(=O)c1ccccc12)C(C)C` [Compound 66], the IC50 came to 99 nM. For `O=C(N[C@@H](CS)C(=O)O)c1ccc2c(c1)[nH]c(=O)c1ccccc12` [Compound 35] the value was 83 nM; for `O=C(c1ccc2c(c1)[nH]c(=O)c1ccccc12)N1CCOCC1` [Compound 2], 100000 nM. In the case of `COC(=O)c1ccc2c(c1)[nH]c(=O)c1cc(F)ccc12` [Compound 48], the concentration for half-maximal inhibition (IC50) stood at 37 nM.

For the compound `CC(=O)Nc1cc2c(cc1C)[nH]c(=O)c1ccccc12` [Compound 45], the IC50 was found to be 229 nM. Turning to `O=c1[nH]c2ccc(S(=O)(=O)NC3CN4CCC3CC4)cc2c2ccccc12` (centres unmarked) [Compound 64], the IC50 amounted to 43 nM. With `NCCCC[C@H](NC(=O)c1ccc2c(c1)[nH]c(=O)c1ccccc12)C(=O)O` [Compound 37], the IC50 stood at 88 nM.

As for `CCC(C)C(NC(=O)c1ccc2c(c1)[nH]c(=O)c1ccccc12)C(=O)O` (centres unmarked) [Compound 26], the IC50 was 711 nM.

Turning to `C[C@H](NC(=O)c1ccc2c(c1)[nH]c(=O)c1ccccc12)C(=O)O` [Compound 32], the IC50 came out at 36 nM. On to `COC(=O)C1CCCN1S(=O)(=O)c1ccc2[nH]c(=O)c3ccccc3c2c1` (centres unmarked) [Compound 58], for which the IC50 turned out to be 1100 nM. For `COc1ccc(S(=O)(=O)Nc2cc3c(cc2C)[nH]c(=O)c2ccccc23)cc1` [Compound 60] the value was 11500 nM; for `NCCCCC(NC(=O)c1ccc2c(c1)[nH]c(=O)c1ccccc12)C(=O)O` (centres unmarked) [Compound 28], 341 nM. In the case of `O=C(NCCCc1ccccc1)c1ccc2c(c1)[nH]c(=O)c1cc(F)ccc12` [Compound 57], the IC50 was 415 nM. Turning to `O=C(N[C@@H](Cc1ccc(F)cc1)C(=O)O)c1ccc2c(c1)[nH]c(=O)c1ccccc12` [Compound 33], the IC50 turned out to be 45 nM. Regarding `O=C(Nc1ccc2[nH]c(=O)c3ccccc3c2c1)c1ccc(F)cc1` [Compound 31], the IC50 was found to be 69 nM. As for `O=C(N[C@H](C(=O)O)c1ccccc1)c1ccc2c(c1)[nH]c(=O)c1ccccc12` [Compound 38], the IC50 was determined as 31 nM. With `Cc1cc2[nH]c(=O)c3ccccc3c2cc1NC(=O)C(C)Br` (centres unmarked) [Compound 63], the half-maximal inhibitory concentration (IC50) amounted to 174 nM. The same measure for `O=C(c1ccc(F)cc1)C1CCN(S(=O)(=O)c2ccc3[nH]c(=O)c4ccccc4c3c2)CC1` [Compound 61]: 319 nM; for `Cc1cc2[nH]c(=O)c3ccccc3c2cc1NC(=O)c1cccc(F)c1` [Compound 52]: 1200 nM; for `O=C(N[C@@H](Cc1ccccc1)C(=O)O)c1ccc2c(c1)[nH]c(=O)c1ccccc12` [Compound 34]: 65 nM. For `NCCN1CCN(S(=O)(=O)c2ccc3[nH]c(=O)c4ccccc4c3c2)CC1` [Compound 51], the IC50 stood at 99 nM. `Cc1ccc(S(=O)(=O)Nc2cc3c(cc2C)[nH]c(=O)c2ccccc23)cc1` [Compound 56]: the IC50 amounted to 5900 nM.

`O=C(NCCOCCO)c1ccc2c(c1)[nH]c(=O)c1ccccc12` [Compound 50]: the IC50 is 80 nM. For `O=C(O)[C@H]1CCCN1C(=O)c1ccc2c(c1)[nH]c(=O)c1ccccc12` [Compound 10], the IC50 stood at 90 nM. For `CN1CCN(S(=O)(=O)c2ccc3c(c2)[nH]c(=O)c2cc(F)ccc23)CC1` [Compound 43] the value was 108 nM; for `O=c1[nH]c2ccc(S(=O)(=O)NCCN3CCOCC3)cc2c2ccccc12` [Compound 4], 140 nM.

Regarding `Cc1ccc(S(=O)(=O)Nc2ccc3[nH]c(=O)c4ccccc4c3c2)cc1` [Compound 1], the IC50 was determined as 120 nM.

With `O=c1[nH]c2ccc(S(=O)(=O)O)cc2c2ccccc12` [Compound 22], the IC50 came to 115 nM. Consider `Cc1cc2[nH]c(=O)c3ccccc3c2cc1NC(=O)Cc1ccc(F)cc1` [Compound 62], for which the IC50 is 449 nM. In the case of `O=C(NC(Cc1ccc2ccccc2c1)C(=O)O)c1ccc2c(c1)[nH]c(=O)c1ccccc12` (centres unmarked) [Compound 42], the IC50 is 19 nM. As to `Cc1cccc2c(=O)[nH]c3cc(C(F)(F)F)c(NC(=O)CCl)cc3c12` [Compound 20], the IC50 is 33 nM. For the compound `CCOC(=O)C1CCN(S(=O)(=O)c2ccc3[nH]c(=O)c4ccccc4c3c2)CC1` [Compound 65], the IC50 is 200 nM. With `CC(=O)NCCN1CCN(S(=O)(=O)c2ccc3[nH]c(=O)c4ccccc4c3c2)CC1` [Compound 68], the IC50 worked out at 142 nM. As for `COC(=O)[C@@H]1CCCN1C(=O)c1ccc2c(c1)[nH]c(=O)c1cc(F)ccc12` [Compound 19], the IC50 is 157 nM. As to `CCCCC(NC(=O)c1ccc2c(c1)[nH]c(=O)c1ccccc12)C(=O)O` (centres unmarked) [Compound 29], the IC50 is 54 nM. With `O=C(O)CCC(NC(=O)c1ccc2c(c1)[nH]c(=O)c1ccccc12)C(=O)O` (centres unmarked) [Compound 25], the IC50 is 272 nM. Turning to `C[N+](C)(C)CC(=O)Nc1ccc2[nH]c(=O)c3ccccc3c2c1` [Compound 7], the IC50 is 30 nM. As for `O=C(NCCc1ccccc1)c1ccc2c(c1)[nH]c(=O)c1cc(F)ccc12` [Compound 18], the IC50 worked out at 150 nM.

As for `O=c1[nH]c2cc(S(=O)(=O)NCCN3CCOCC3)ccc2c2ccc(F)cc12` [Compound 44], the IC50 stood at 19 nM.

Turning to `CC(NC(=O)c1ccc2c(c1)[nH]c(=O)c1ccccc12)C(=O)O` (centres unmarked) [Compound 24], the IC50 is 56 nM. As to `O=C(NCc1ccccc1)c1ccc2c(c1)[nH]c(=O)c1cc(F)ccc12` [Compound 16], the IC50 is 399 nM.

With `COC(=O)[C@@H]1CCCN1C(=O)c1ccc2c(c1)[nH]c(=O)c1ccccc12` [Compound 41], the IC50 is 118 nM. `O=C(O)[C@@H]1CCCN1C(=O)c1ccc2c(c1)[nH]c(=O)c1cc(F)ccc12` [Compound 21]: the IC50 was 124 nM. For the compound `Cc1cc2[nH]c(=O)c3ccccc3c2cc1NC(=O)CCc1ccccc1` [Compound 59], the IC50 is 7500 nM. For `CC(C)[C@H](NC(=O)c1ccc2c(c1)[nH]c(=O)c1ccccc12)C(=O)O` [Compound 39] the value was 25 nM. As to `Cc1cc2[nH]c(=O)c3ccccc3c2cc1NC(=O)CCl` [Compound 47], the IC50 stood at 152 nM. With `O=c1[nH]c2ccc(S(=O)(=O)N3CCCC(CO)C3)cc2c2ccccc12` (centres unmarked) [Compound 67], the IC50 was 164 nM. In the case of `O=c1[nH]c2ccc(S(=O)(=O)NCc3ccncc3)cc2c2ccccc12` [Compound 55], the IC50 is 94 nM. In the case of `O=C(CCl)Nc1ccc2[nH]c(=O)c3ccccc3c2c1` [Compound 5], the IC50 was 80 nM.

For `O=C(NCCN1CCOCC1)c1ccc2c(c1)[nH]c(=O)c1ccccc12` [Compound 9], the IC50 was 40 nM. The same measure for `O=c1[nH]c2ccc(S(=O)(=O)NCCN(CCO)CCO)cc2c2ccccc12` [Compound 8]: 60 nM; for `O=c1[nH]c2ccc(S(=O)(=O)NCCN3CCCC3)cc2c2ccccc12` [Compound 53]: 74 nM; for `O=C(NCCN1CCOCC1)c1ccc2c(c1)[nH]c(=O)c1ccccc12` [Compound 40]: 35 nM. For `Cc1cc2[nH]c(=O)c3ccccc3c2cc1NC(=O)C[N+](C)(C)C` [Compound 54] the value was 195 nM. Regarding `O=C(NC(CO)C(=O)O)c1ccc2c(c1)[nH]c(=O)c1ccccc12` (centres unmarked) [Compound 30], the IC50 was 83 nM.

The record behind these values is patent US6723733B2, “Sulfonamide and carbamide derivatives of 6(5H)phenanthridinones and their uses” (Guilford Pharmaceuticals, Inc., priority 2000, dated 2004).
